# Several values for one entry are separate records, joined by “and”; a condition that tells them apart may be missing. Equal entries are not always repeated. Entries after “also recorded” stand apart in the source; their conditions may differ. Where two headings read alike, the source gives them in different places.
# Experiments:
# rNK1 = rNK1 (Rattus norvegicus, UniProt P14600); details: previous studies; read-out: Affinity (Ki in nM), rNK1; cited from earlier work
# DOR = DOR (Homo sapiens, UniProt P41143); details: previous studies; read-out: Affinity (Ki in nM), DOR; cited from earlier work
# Chain of DOR (P41143 whole entry): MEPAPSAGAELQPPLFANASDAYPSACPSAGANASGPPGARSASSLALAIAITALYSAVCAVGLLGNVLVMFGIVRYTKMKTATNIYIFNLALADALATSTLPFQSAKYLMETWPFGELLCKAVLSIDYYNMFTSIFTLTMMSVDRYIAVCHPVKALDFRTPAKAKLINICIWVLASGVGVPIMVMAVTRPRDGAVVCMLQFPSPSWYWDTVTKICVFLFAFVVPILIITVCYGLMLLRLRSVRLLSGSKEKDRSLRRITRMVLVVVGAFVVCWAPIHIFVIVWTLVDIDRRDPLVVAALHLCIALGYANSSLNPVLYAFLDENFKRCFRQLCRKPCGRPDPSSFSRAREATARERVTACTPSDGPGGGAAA
# MOR = MOR (Homo sapiens, UniProt P35372); details: previous studies; read-out: Affinity (Ki in nM), MOR; cited from earlier work
# Chain of MOR (P35372 whole entry): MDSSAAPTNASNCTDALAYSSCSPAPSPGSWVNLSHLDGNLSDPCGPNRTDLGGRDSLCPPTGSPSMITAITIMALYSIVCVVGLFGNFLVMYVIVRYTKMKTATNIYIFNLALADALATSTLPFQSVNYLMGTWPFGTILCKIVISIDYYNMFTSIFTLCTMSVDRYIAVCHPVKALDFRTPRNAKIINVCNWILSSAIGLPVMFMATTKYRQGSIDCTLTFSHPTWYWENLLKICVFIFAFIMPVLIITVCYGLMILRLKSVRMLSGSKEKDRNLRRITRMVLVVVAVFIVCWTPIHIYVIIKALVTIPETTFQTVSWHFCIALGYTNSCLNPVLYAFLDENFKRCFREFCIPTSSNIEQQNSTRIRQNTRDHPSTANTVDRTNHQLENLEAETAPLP
# [1] = biological target: T1, human NK1 receptor (hNK1) (Homo sapiens, UniProt P25103); experiment: Radioligand competition binding, [3H]-Substance P, hNK1; details: for species difference between affinities at rNK1 and hNK1: Ki rNK1 vs Ki hNK1
# T1 construct: expressed in transfected cells
# T1 sequence (P25103 whole entry): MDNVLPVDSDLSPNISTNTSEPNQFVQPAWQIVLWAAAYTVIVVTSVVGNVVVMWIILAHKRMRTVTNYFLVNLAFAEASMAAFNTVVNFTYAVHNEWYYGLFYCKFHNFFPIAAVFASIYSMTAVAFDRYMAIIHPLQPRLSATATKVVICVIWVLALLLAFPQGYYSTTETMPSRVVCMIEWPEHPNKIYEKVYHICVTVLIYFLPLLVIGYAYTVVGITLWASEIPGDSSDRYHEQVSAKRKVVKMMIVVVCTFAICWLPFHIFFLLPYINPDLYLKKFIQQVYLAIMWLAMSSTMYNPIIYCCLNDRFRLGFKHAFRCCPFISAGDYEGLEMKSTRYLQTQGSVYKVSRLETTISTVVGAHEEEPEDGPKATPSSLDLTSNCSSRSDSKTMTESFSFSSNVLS
# [2] = biological target: T2, human δ opioid receptors (hDOR) (Homo sapiens, UniProt P41143); experiment: [35S]GTP-γ-S binding assay, hDOR; type: biochemical
# T2 construct: expressed in transfected cells; host or cells: HN9.10 neuroblastoma cell line, pCDNA3, neomycin-selected clones
# T2 sequence (P41143 whole entry): as the sequence (P41143 whole entry) above
# [3] = biological target: T3, rat μ opioid receptors (rMOR) (Rattus norvegicus, UniProt P33535); experiment: Radioligand competition binding, [3H]DAMGO, rMOR membranes
# T3 construct: expressed in transfected cells; host or cells: HN9.10 neuroblastoma cell line, pCDNA3, neomycin-selected clones
# T3 sequence (P33535 whole entry): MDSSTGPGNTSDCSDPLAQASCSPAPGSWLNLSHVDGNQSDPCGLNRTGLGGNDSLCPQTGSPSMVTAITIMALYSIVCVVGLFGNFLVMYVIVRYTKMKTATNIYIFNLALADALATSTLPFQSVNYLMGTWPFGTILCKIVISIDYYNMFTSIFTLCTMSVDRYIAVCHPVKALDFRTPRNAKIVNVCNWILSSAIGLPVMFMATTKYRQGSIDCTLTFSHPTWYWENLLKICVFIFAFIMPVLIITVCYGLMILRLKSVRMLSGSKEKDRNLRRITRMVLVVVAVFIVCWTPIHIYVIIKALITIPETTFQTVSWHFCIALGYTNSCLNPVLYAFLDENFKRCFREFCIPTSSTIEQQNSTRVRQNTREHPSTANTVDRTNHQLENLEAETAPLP
# FIG. 47 = experiment: FIG. 47
# Protocol: Table printed on a drawing sheet, FIG. 47
# The patent's description of the figure: FIG. 47. Concentration of cyclic compounds in rat plasma after incubation at 37° C.
# normal, uninjured rats [4] = details: reported; cited from earlier work
# [5] = system: L5/L6 spinal nerve ligated (SNL) male Sprague Dawley rats; experiment: Anti-allodynia, von Frey filament testing in L5/L6 SNL rats; type: in vivo, rat; details: for anti-allodynic effect against mechanical stimulation: SNL rats, words
# Protocol: (§1) To estimate the analgesic potency of the chimeric compounds, anti-nociceptive, anti-hyperalgecia and anti-allodynic efficacies is tested via intrathecal (i.th.) or systemic (s.c.) administration of the compounds in L5/L6 spinal nerve ligated (SNL) male Sprague Dawley rats. Anti-nociception and anti-hyperalgecia were determined by using the infrared thermal testing, wherein paw withdrawal latencies were measured in response to a mobile radiant heat (FIG. 7-14). Anti-allodynic effect was measured in von Frey filamental testing (FIG. 7-14). Both chronic and acute animal models were tested ([…]).
# (§2) In vivo Biological Activity. […] Food and water was available ad libitum. […] I.th. […] Each training session lasted three minutes. […] Discussion.
# normal, uninjured rats [6] = experiment: Rotarod motor skill test; details: highest analgesic dose 30 μg
# [7] = biological target: T4, Substance P receptors (guinea pig NK1) (Cavia porcellus, UniProt P30547); experiment: Guinea pig isolated ileum (GPI) assay with substance P stimulation in presence of 1 μM naloxone; details: for Kb: Substance P antagonist, GPI; for Kb / Substance P antagonist, GPI, Ke: in the presence of 1 μM naloxone
# T4 construct: from tissue; host or cells: guinea pig (Hartley) ileum LMMP, 1 μM naloxone present
# T4 sequence (P30547 whole entry): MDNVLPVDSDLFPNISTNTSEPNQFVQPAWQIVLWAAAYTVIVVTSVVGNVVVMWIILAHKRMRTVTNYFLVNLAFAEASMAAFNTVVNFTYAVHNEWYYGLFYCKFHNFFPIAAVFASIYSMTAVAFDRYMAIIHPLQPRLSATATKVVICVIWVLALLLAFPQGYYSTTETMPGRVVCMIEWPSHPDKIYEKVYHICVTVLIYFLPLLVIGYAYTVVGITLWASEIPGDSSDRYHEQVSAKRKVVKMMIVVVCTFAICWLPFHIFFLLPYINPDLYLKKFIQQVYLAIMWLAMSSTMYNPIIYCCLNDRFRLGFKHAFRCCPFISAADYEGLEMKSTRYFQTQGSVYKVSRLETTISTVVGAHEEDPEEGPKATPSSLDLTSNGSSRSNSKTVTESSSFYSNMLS
# male Sprague Dawley rats [8] = experiment: Anti-nociception, infrared radiant heat paw withdrawal latency; type: in vivo, rat; details: i.th.
# Protocol: as §1, §2
# [9] = biological target: T2, human δ opioid receptors (hDOR); experiment: Radioligand competition binding, [3H]DPDPE, hDOR membranes; details: membranes from transfected HN9.10 cells
# [10] = Brain distribution, in situ perfusion model; type: in vivo; details: FIG. 20
# male Sprague Dawley rats [11] = experiment: Observation of toxicity throughout the in vivo studies; design: species or system rat
# Text: as §2
# These assays gave the inventors very encouraging results.
# μ opioid receptors (GPI) = experiment: Guinea pig isolated ileum (GPI) assay, opioid agonist;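 also: inhibition of electrically evoked contractions (0.1 Hz, 0.4 msec, supramaximal voltage) in organ baths at 37 °C, contraction height 3 min after each cumulative dose versus the 1 min before dosing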
# rat NK1 (rNK1) receptor = biological target: T5, rat NK1 (rNK1) receptor (Rattus norvegicus, UniProt P14600); experiment: Radioligand competition binding, [3H]substance P, rNK1/CHO membranes; details: for IC50: membranes from transfected CHO cells
# T5 construct: expressed in transfected cells; host or cells: CHO (rNK-1/CHO cell line from Dr. James Krause)
# T5 sequence (P14600 whole entry): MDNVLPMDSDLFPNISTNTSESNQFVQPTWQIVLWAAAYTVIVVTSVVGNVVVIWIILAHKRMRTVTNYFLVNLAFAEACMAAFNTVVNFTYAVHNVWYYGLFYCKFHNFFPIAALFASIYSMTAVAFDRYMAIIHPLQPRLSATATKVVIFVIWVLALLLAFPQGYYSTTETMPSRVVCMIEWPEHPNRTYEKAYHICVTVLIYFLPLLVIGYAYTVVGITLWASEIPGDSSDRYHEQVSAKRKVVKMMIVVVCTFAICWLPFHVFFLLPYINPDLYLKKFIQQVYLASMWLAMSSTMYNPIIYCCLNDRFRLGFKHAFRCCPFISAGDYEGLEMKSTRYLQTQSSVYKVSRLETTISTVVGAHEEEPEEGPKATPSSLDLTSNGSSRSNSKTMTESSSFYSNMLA
# [12] = system: L5/L6 spinal nerve ligated (SNL) male Sprague Dawley rats; experiment: Anti-hyperalgesia, infrared radiant heat in L5/L6 SNL rats; type: in vivo, rat
# Protocol: as §1, §2
# [13] = Octanol/saline distribution (logD7.4); type: physicochemical; details: 0.05 N HEPES buffer in 0.1 N NaCl
# Protocol: HEPES buffer (0.05 M HEPES buffer in 0.1 M NaCl, pH 7.4, 500 μL) was added to 2 mg of compound and mixed with 500 μL of 1-octanol. The sample was shaken at r.t. for 12 h to allow equilibrating. The sample was centrifuged at 6500 rpm in a VanGuard V6500 (GlaxoSmithKline, Research Triangle Park, N.C.) for 15 min. The layers were separated and each layer was centrifuged once again. The compound concentrations of obtained layers were analyzed by HPLC (30-70% of acetonitrile containing 0.1% TFA within 20 min and up to 95% within additional 5 min, 1 mL/min, 230 nm, Vydac 218TP104 C-18 column). The logarithm of 1-octanol/saline distribution (logD7.4) was calculated as the ratio of compound concentration in the 1-octanol and saline phases.
# Octanol/saline distribution (logD7.4) (Yamamoto, 2007, J. Med. Chem., submitted). HEPES buffer (0.05 M HEPES buffer in 0.1 M NaCl, pH 7.4, 500 μL) was added to 2 mg of compound and mixed with 500 μL of 1-octanol. The sample was shaken at r.t. for 12 h to allow equilibrating. The sample was centrifuged at 6500 rpm in a VanGuard V6500 (GlaxoSmithKline, Research Triangle Park, N.C.) for 15 min. The layers were separated and each layer was centrifuged once again. The compound concentrations in the obtained layers were analyzed by HPLC (30-70% of acetonitrile containing 0.1% TFA within 20 min and up to 95% within additional 5 min, 1 mL/min, 230 nm, Vydac 218TP104 C-18 column). The logarithm of 1-octanol/saline distribution (logD7.4) was calculated as the ratio of compound concentration in the 1-octanol and saline phases.
# δ opioid receptors (MVD) = biological target: T6, δ opioid receptors (MVD) (Mus musculus, UniProt P32300); experiment: Mouse isolated vas deferens (MVD) assay, opioid agonist
# T6 construct: from tissue; host or cells: mouse (ICR) isolated vas deferens
# T6 sequence (P32300 whole entry): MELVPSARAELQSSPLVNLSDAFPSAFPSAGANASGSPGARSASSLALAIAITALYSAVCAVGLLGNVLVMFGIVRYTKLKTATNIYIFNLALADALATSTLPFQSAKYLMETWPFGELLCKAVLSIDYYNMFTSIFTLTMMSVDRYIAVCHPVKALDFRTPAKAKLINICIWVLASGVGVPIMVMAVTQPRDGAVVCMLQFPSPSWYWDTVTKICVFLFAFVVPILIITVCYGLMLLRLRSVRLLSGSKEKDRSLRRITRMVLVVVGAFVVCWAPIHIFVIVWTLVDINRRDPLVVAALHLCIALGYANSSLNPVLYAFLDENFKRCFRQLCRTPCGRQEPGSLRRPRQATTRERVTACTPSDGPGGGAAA
# [14] = biological target: T3, rat μ opioid receptors (rMOR); experiment: biochemical; type: biochemical
# [15] = Solubility in HEPES buffer; type: physicochemical; details: pH 7.4; 0.05 N HEPES buffer in 0.1 N NaCl solution
# Protocol: Solubility. HEPES buffer (0.05 M HEPES buffer in 0.1 M NaCl, pH 7.4, 500 μL) was added to 1 mg of compound. The sample was vortexed for 30 sec, sonicated for 5 min, shaken at r.t. for 2 h, and then allowed to be stayed overnight to equilibration. The sample was filtrated with an Acrodisc Syringe Filter (13 mm, 0.45 μm pore, PTFE membrane, Pall Life Sciences, East Hills, N.Y.).
# [16] = biological target: T1, human NK1 receptor (hNK1); details: Cascieri 1994; cited from earlier work
# [17] = read-out: GTP binding hDOR Emax
# [18] = read-out: GTP binding hDOR Emax (%)
# [19] = chronic, i.th., SNL-operated animals
# [20] = Table 30, read-out: GPI/LMMP Opioid(m) Agonist (IC50; nM)
# [21] = Table 39, read-out: GPI/LMMP opioid(mu) agonist (IC50; nM)
# [22] = electrically stimulated isolated tissue, read-out: GPI (μ), IC50
# Chain of rNK1 (P14600 whole entry): as the sequence (P14600 whole entry) above
molecule,measurement,setting,value
HTyrDAlaDTrpPheDTrpLeuLeuNH2 [JSOH11],Ki,rNK1,7320 nM
same,Ki,DOR,16.5 nM
same,Ki,MOR,164 nM
CC(C)C[C@H](NC(=O)[C@@H]1CCCN1C(=O)[C@H]1NC(=O)[C@H](Cc2ccccc2)NC(=O)CNC(=O)[C@H](NC(=O)[C@@H](N)Cc2ccc(O)cc2)C(C)(C)SSC1(C)C)C(=O)N[C@@H](Cc1c[nH]c2ccccc12)C(=O)NCc1cc(C(F)(F)F)cc(C(F)(F)F)c1 [TY046],Ki,[1],0.0053 nM
same,Emax,[2]; [17],15%
same,Emax,[2]; [18],15%
same,Ki,[3],2330 nM
same,T1/2,FIG. 47,8.0 h
"CN1CC[C@]23c4c5ccc(O)c4O[C@H]2[C@@H](O)C=C[C@H]3[C@H]1C5 [morphine, reference compound]",rotarod performance,"normal, uninjured rats [4]",impaired performance
same,anti-allodynic effect against mechanical stimulation,[5],negligible anti-allodynic efficacy
"CSCC[C@H](NC(=O)[C@H](Cc1ccccc1)NC(=O)CNC(=O)[C@@H](C)NC(=O)[C@@H](N)Cc1ccc(O)cc1)C(=O)N1CCC[C@H]1C(=O)N[C@@H](CC(C)C)C(=O)N[C@@H](Cc1c[nH]c2ccccc12)C(=O)OCc1cc(C(F)(F)F)cc(C(F)(F)F)c1 [TY005, H-Tyr-D-Ala-Gly-Phe-Met-Pro-Leu-Trp-O-3,5-Bzl(CF3)2]",sensorimotor impairment in rotarod test,"normal, uninjured rats [6]",no sensorimotor impairment
same,Kb,[7]; Ke,24.7 ± 8.8 nM
same,activation at 1 µM,"[7]; read-out: Substance P GPI agonist (A50), at 1 μM, contraction relative to initial muscle contraction with KCl",0%
same,time after administration at which efficacy disappeared,male Sprague Dawley rats [8],45 min
same,anti-nociceptive effect,"male Sprague Dawley rats [8]; infrared radiant heat, words",very potent; also recorded: distinct anti-nociceptive effect
same,"LogIC50, hDOR, [3H]DPDPE",[9],−8.22 ± 0.06
same,species difference between affinities at rNK1 and hNK1,[1],3.4 fold
same,anti-allodynic effect against mechanical stimulation,[5],very potent anti-allodynic effect
same,mechanical allodynia after chronic administration,[5]; [19],reverses mechanical allodynia
same,blood brain barrier penetration,[10],penetrate blood brain barrier
same,sign of toxicity,male Sprague Dawley rats [11],without any sign of toxicity; also recorded: no sign of toxicity
same,IC50,"μ opioid receptors (GPI); Table 16, electrically stimulated isolated tissue, read-out: Opioid agonist GPI (μ), IC50",360 ± 130 nM
same,IC50,"μ opioid receptors (GPI); Table 28, read-out: GPI/LMMP Opioid(m) Agonist (IC50; nM)",359 nM
same,IC50,μ opioid receptors (GPI); [20],359 nM
same,IC50,μ opioid receptors (GPI); [21],359 nM
same,IC50,μ opioid receptors (GPI); [22],359 ± 127 nM
same,Emax,"[2]; read-out: Emax, hDOR, [35S]GTP-γ-S binding",51%
same,Emax,[2]; [17],47.6%
same,Emax,[2]; [18],47.6%
same,Ki,"rat NK1 (rNK1) receptor; Affinity rNK1 (Ki; nM), Table 29",0.2 nM
same,IC50,"rat NK1 (rNK1) receptor; IC50, rNK1, Substance P radioligand",6.4 nM
same,IC50,"rat NK1 (rNK1) receptor; LogIC50, rNK1, Substance P radioligand",6.03 nM
same,anti-hyperalgesic recovery,"[12]; 30 μg i.th., SNL rats",~100%
same,thermal hyperalgesia after chronic administration,[12]; [19],attenuates thermal hyperalgesia
same,anti-hyperalgesic efficacy,"[12]; i.th., SNL rats, words",very potent; also recorded: Dose dependent anti-hyperalgesic efficacy
same,logD7.4,[13],>4.0
same,IC50,δ opioid receptors (MVD),22.3 nM
same,Emax,"[14]; read-out: Emax, rMOR, [35S]GTP-γ-S binding",45%
same,Emax,[14]; read-out: GTP binding rMOR Emax,45.6%
same,Emax,[14]; read-out: GTP binding rMOR Emax (%),45.6%
same,solubility,[15],< 0.2 µg/mL
HTyrDAlaDPhePheDTrpLeuMetNH2 [JSOH9],Ki,rNK1,2940 nM
same,Ki,DOR,0.72 nM
same,Ki,MOR,606 nM
"CSCC[C@H](NC(=O)[C@H](Cc1ccccc1)NC(=O)CNC(=O)[C@@H](C)NC(=O)[C@@H](N)Cc1ccc(O)cc1)C(=O)N1CCC[C@H]1C(=O)N[C@@H](CC(C)C)C(=O)N[C@@H](Cc1c[nH]c2ccccc12)C(=O)NCc1ccccc1 [TY025, H-Tyr-D-Ala-Gly-Phe-Met-Pro-Leu-Trp-NH-Bzl]",Kb,"[7]; Ke (nM), Table 16",9.9 ± 2.8 nM
same,species difference between affinities at rNK1 and hNK1,[1],220 fold
same,blood brain barrier penetration,[10],penetrate blood brain barrier
same,IC50,μ opioid receptors (GPI); [20],61.1 nM
same,IC50,μ opioid receptors (GPI); [21],61.1 nM
same,IC50,μ opioid receptors (GPI); [22],61 nM
same,"LogEC50, hDOR","[2]; Table 14, logarithm of EC50 (negative), HN9.10 cell",−8.6 ± 0.13
same,Ki,"rat NK1 (rNK1) receptor; Table 39, read-out: Affinity rNK1 (Ki; nM)",696 nM
same,logD7.4,[13],3.6
"CC(=O)N[C@@H](Cc1c[nH]c2ccccc12)C(=O)OCc1cc(C(F)(F)F)cc(C(F)(F)F)c1 [L-732,138, Ac-Trp-3,5-O-Bzl(CF3)2, reference compound]","Substance P antagonist, GPI, Ke",[7]; Table 16,250 ± 87 nM
same,"Substance P antagonist, GPI, Ke",[7]; Table 22,250 ± 87 nM
same,"Substance P antagonist, GPI, Ke",[7],247 nM
same,"Substance P antagonist, GPI, Ke",[7]; 138,247 ± 87 nM and 250 ± 87 nM
same,less affinity for rNK1 than hNK1 receptor,[16],200 fold
